According to US20070077268A1, “Hydrophobic carrier modified implants for beneficial agent delivery” (DePuy Products, Inc., priority 2005, published 2007):

Assay: Cyclic loading test of UHMWPE pins, release of beta-carotene
Format: physicochemical
Settings: pins soaked in 1.0 wt. % beta-carotene in squalane at 90° C. for 24 hours; peak load about 330 Newtons, 1.66 Hz, bovine calf serum, 37° C.
Description: UHMWPE (GUR 1050) is irradiated with gamma radiation (50 KGy or 5 Mrad) and melt annealed to quench free radicals. An AMTI Ortho-POD Wear Test Machine is used for the testing the UHMWPE cylindrical pin samples. The samples are ⅜ inch in diameter and 0.7 inch long, and are soaked in a 1.0 wt. % solution of beta-carotene in squalane at 90° C. for 24 hours. The samples are bright orange red in color, indicating the presence of beta-carotene.
A Paul loading curve with a peak load of about 330 Newtons is applied to the pins. The cycling frequency is 1.66 Hz. A 90% bovine calf serum, diluted with EDTA and sodium azide dissolved in reverse osmosis water, is used as lubricant. The temperature of the lubricant is 37° C.

## CC1=C(/C=C/C(C)=C/C=C/C(C)=C/C=C/C=C(C)/C=C/C=C(C)/C=C/C2=C(C)CCCC2(C)C)C(C)(C)CCC1 [beta-carotene]
  release of beneficial agent from UHMWPE pins (colour change bright orange red to light orange): released, activated by the load
